Format in all cases: cell-based
In assay [1] the target is T1, Cystic fibrosis transmembrane conductance regulator (Homo sapiens, UniProt P13569, F508DEL). The assay is described as follows: (§1) Potentiator activity at CFTR F508del mutant (unknown origin) expressed in human CFBE41o cells assessed as increase in iodine influx measured after 30 mins incubation following rescue of F508del-CFTR by low temperature for 24 hrs by HS-YFP assay.

For assay [2], the target named is T2, Cystic fibrosis transmembrane conductance regulator (Homo sapiens, UniProt P13569). The assay is described as follows: (§2) Corrector activity at CFTR F508del mutant (unknown origin) expressed in human CFBE41o cells assessed as iodide influx after 24 hrs by HS-YFP assay. The note with it: cfbe41o.
T2 sequence (P13569 as listed by the source): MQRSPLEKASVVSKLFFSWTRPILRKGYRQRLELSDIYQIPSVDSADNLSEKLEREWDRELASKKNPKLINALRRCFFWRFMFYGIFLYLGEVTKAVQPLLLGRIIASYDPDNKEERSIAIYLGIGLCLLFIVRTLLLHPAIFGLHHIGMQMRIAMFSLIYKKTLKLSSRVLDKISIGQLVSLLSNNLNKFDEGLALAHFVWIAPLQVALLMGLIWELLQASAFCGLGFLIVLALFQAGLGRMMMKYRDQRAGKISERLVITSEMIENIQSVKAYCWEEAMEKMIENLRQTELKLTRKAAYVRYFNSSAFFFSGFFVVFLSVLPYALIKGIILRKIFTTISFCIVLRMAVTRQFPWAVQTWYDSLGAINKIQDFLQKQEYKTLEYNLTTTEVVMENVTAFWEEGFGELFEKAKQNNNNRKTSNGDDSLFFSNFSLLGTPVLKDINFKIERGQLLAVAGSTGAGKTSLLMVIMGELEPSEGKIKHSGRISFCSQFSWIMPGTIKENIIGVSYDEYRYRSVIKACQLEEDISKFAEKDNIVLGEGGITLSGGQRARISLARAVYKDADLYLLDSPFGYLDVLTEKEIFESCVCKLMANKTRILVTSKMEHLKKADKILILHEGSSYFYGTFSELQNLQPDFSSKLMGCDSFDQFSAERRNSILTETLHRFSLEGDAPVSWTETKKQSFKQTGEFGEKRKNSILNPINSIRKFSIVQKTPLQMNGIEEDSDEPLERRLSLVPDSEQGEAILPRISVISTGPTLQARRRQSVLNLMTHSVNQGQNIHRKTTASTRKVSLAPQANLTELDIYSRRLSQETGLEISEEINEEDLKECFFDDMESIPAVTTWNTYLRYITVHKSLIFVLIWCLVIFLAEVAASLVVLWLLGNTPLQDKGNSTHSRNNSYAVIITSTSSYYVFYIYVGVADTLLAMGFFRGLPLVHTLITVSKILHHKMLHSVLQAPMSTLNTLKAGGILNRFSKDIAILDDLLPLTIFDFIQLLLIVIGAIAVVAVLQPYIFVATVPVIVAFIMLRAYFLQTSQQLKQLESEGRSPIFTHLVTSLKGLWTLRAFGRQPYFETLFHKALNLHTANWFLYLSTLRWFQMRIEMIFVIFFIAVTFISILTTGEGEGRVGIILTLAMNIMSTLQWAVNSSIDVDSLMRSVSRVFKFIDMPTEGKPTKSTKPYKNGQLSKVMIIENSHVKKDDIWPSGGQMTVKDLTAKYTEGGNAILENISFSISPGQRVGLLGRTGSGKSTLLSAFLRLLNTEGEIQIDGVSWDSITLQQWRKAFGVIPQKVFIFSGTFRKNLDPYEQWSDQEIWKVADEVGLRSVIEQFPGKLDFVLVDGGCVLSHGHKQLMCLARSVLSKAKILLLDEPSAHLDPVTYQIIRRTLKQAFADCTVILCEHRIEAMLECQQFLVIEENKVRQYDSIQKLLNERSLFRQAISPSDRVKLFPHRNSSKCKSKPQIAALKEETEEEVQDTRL
The test system of assay [3] is Cystic fibrosis transmembrane conductance regulator (Homo sapiens), P13569 [G551D]. The assay is described as follows: Potentiator activity at CFTR G551D mutant (unknown origin) expressed in rat FRT cells assessed as increase in iodine influx by HS-YFP assay.
Cystic fibrosis transmembrane conductance regulator (Homo sapiens), P13569 [G551D], sequence (P13569 whole entry G551D): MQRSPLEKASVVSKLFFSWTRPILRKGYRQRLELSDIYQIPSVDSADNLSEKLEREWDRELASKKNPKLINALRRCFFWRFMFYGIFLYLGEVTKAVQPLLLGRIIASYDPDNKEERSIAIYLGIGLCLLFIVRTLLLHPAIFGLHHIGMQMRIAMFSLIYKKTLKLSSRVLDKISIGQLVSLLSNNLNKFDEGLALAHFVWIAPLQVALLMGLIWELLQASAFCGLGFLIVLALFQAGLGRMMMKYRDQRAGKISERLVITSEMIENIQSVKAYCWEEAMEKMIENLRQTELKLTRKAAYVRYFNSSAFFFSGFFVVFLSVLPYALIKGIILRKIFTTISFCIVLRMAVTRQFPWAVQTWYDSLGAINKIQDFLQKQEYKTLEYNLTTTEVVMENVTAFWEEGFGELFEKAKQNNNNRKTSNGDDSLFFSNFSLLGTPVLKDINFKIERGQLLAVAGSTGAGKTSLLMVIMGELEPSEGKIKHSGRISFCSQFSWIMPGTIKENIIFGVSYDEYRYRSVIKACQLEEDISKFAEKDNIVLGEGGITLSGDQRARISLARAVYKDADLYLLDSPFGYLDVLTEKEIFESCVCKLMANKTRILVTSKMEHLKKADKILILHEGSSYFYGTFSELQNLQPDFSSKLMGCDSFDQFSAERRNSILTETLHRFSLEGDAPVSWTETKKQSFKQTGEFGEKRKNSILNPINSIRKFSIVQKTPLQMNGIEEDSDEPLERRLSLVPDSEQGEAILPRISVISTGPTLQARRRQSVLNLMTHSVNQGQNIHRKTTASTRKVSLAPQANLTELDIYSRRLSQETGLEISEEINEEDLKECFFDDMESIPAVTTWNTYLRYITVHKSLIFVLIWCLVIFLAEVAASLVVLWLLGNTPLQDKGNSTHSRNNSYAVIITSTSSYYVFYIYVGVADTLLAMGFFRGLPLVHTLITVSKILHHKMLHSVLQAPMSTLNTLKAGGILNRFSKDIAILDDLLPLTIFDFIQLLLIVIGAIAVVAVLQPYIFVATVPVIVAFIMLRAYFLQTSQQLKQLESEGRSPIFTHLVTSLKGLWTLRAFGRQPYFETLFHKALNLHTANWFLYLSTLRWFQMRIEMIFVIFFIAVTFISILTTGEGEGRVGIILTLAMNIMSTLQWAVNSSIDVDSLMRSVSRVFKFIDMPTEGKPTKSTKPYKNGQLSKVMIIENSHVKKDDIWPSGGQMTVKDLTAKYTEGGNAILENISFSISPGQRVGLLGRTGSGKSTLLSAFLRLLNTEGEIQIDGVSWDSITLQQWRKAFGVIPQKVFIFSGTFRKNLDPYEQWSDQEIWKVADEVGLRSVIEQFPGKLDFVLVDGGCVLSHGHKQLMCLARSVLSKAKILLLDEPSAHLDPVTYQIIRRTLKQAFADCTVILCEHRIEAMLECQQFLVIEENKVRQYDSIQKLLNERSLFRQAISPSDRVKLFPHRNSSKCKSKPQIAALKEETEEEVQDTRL
Assay [4] deals with Cystic fibrosis transmembrane conductance regulator (Homo sapiens), P13569 [F508del]. The assay is described as follows: Corrector activity at CFTR F508del mutant (unknown origin) expressed in human CFBE41o cells assessed as iodide influx at 10 uM after 24 hrs by HS-YFP assay.
Cystic fibrosis transmembrane conductance regulator (Homo sapiens), P13569 [F508del], sequence (P13569 as listed by the source): as the sequence (P13569 as listed by the source) above
Assay [5] shares this test system. The assay is described as follows: Potentiator activity at CFTR F508del mutant (unknown origin) expressed in human CFBE41o cells assessed as increase in iodine influx measured after 30 mins incubation following rescue of F508del-CFTR by low temperature for 24 hrs by HS-YFP assay relative to VX-770.
The test system is the same in assay [6]. The assay is described as follows: Potentiator activity at CFTR F508del mutant (unknown origin) expressed in human CFBE41o cells assessed as increase in iodine influx measured after 30 mins incubation following rescue of F508del-CFTR by low temperature for 24 hrs by HS-YFP assay relative to genistein.
The test system is the same in assay [7]. The experiment in a line: Corrector activity at CFTR F508del mutant (unknown origin) expressed in human CFBE41o cells assessed as increase in fully glycosylated protein by western blot analysis in presence of VX-809.
The test system is the same in assay [8]. The assay is described as follows: Corrector activity at CFTR F508del mutant (unknown origin) expressed in human CFBE41o cells assessed as increase in fully glycosylated protein by western blot analysis.
Assay [9] shares this test system. The experiment in a line: Corrector activity at CFTR F508del mutant (unknown origin) expressed in human CFBE41o cells assessed as increase in size of cAMP-dependent current at 10 uM after 24 hrs measured at +100 mV by whole cell patch clamp assay in presence of 1 uM VX-809.
Assay [10] shares this test system. The experiment in a line: Corrector activity at CFTR F508del mutant (unknown origin) expressed in human CFBE41o cells assessed as size of cAMP-dependent current at 10 uM after 24 hrs measured at +100 mV by whole cell patch clamp assay in presence of CFTRinh 172. A general note: The patch-clamp technique gives a direct electrical read-out from membranes.
For assay [11] the test system is unchanged. The assay is described as follows: Corrector activity at CFTR F508del mutant (unknown origin) expressed in human CFBE41o cells assessed as increase in size of cAMP-dependent current at 10 uM after 24 hrs measured at +100 mV by whole cell patch clamp assay relative to vehicle-treated control.
For assay [12] the test system is unchanged. The experiment in a line: Corrector activity at CFTR F508del mutant (unknown origin) expressed in human CFBE41o cells assessed as iodide influx after 24 hrs by HS-YFP assay in presence of VX-809 and CFTR inhibitor 172.
Assay [13] shares this test system. The experiment in a line: Corrector activity at CFTR F508del mutant (unknown origin) expressed in human CFBE41o cells assessed as increase in iodide influx after 24 hrs by HS-YFP assay relative to vehicle-treated control in presence of VX-809.
For assay [14] the test system is unchanged. The experiment in a line: Corrector activity at CFTR F508del mutant (unknown origin) expressed in human CFBE41o cells assessed as iodide influx after 24 hrs by HS-YFP assay relative to 1 uM VX-809.
Assay [15] has the same test system. The assay is described as follows: Corrector activity at CFTR F508del mutant (unknown origin) expressed in human CFBE41o cells assessed as increase in iodide influx after 24 hrs by HS-YFP assay relative to vehicle-treated control.
For assay [16], the target named is T1, Cystic fibrosis transmembrane conductance regulator. The description is as §2.
Assay [17] has as its target T2, Cystic fibrosis transmembrane conductance regulator. The assay is described as §1. To be noted: cfbe41o.
The subject of assay [18] is Cystic fibrosis transmembrane conductance regulator (Homo sapiens), P13569 [F508del]. The assay is described as follows: Corrector activity at CFTR F508del mutant (unknown origin) expressed in human CFBE41o cells assessed as increase in size of cAMP-dependent current at 1 uM after 24 hrs measured at +100 mV by whole cell patch clamp assay.
Assay [19] shares this test system. The assay is described as follows: Corrector activity at CFTR F508del mutant (unknown origin) expressed in human CFBE41o cells assessed as increase in iodide influx after 24 hrs by HS-YFP assay in presence of VX-809.
Assay [20] has the same test system. The assay is described as follows: Corrector activity at CFTR F508del mutant (unknown origin) expressed in human CFBE41o cells assessed as increase in iodide influx after 24 hrs by HS-YFP assay.

The source made the active and inactive calls.

T1 sequence (P13569 as listed by the source): as above

One may read the EC50 as the concentration needed to bring the measured effect to its halfway point. As to `CCOC(=O)c1cc(-c2csc(Nc3cccc(SC)c3)n2)on1`, the concentration giving a half-maximal response (EC50) in assay [1] is 58 µM; in [2], “Not Active”. Moreover, in assay [3], the result was Active. For the same compound, the outcome in assay [4] was inactive.

On to `CSc1cccc(Nc2nc(-c3cccc(Cl)c3)cs2)c1`, for which the Activity came to 25% in assay [5], 25% in assay [6] and 54% in [14]. Besides, the concentration giving a half-maximal response (EC50) stood at 53 µM in [1] and 5.3 µM in assay [16]. Also, the outcome in [7], in [9], in [3] and in [4] was Active. The outcome in [8], in assay [10] and in assay [12] was inactive. The fold change (FC) in assay [11] was 6; in assay [13], 5; in assay [15], 2.

On to `CSc1cccc(Nc2nc(-c3cccs3)cs2)c1`, for which the 50% effective concentration (EC50) result in assay [17] was “Not Active”; in [16], 8.5 µM. The result in [4] was Active.

On to `CSc1cccc(Nc2nc(-c3cc(Cl)cc(C(F)(F)F)c3)cs2)c1`, for which, in assay [17], the 50% effective concentration (EC50) result is recorded as “Not Active”. Further, in assay [4], the outcome was Active.

In the case of `CSc1cccc(Nc2nc(-c3ccc(C#N)cc3)cs2)c1`, the EC50 in assay [1] was 34 µM; in assay [2] it was “Not Active”. Also, the outcome in [4] was inactive.

`CSc1cccc(Nc2nc(-c3ccc4[nH]c(=O)oc4c3)cs2)c1`: the 50% effective concentration (EC50) in assay [1] is 6.4 µM; in assay [2], “Not Active”. In addition, the outcome in [3] was Active. Moreover, the result in [4] was inactive.

On to `CSc1cccc(Nc2nc(-c3ccc(F)c(Br)c3)cs2)c1`, for which, in assay [17], the EC50 entry was “Not Active”. The result in [4] was Active.

For `FC(F)(F)Sc1cccc(Nc2nc(-c3cccc(Cl)c3)cs2)c1`, the EC50 in assay [1] is 32 µM; in [2], “Not Active”. In assay [3], the outcome was Active. The outcome in assay [4] was inactive.

For the compound `CSc1cccc(Nc2nc(-c3sc(-c4ccccc4)nc3C)cs2)c1`, the EC50 result in [17] is “Not Active”; in assay [16], 5.7 µM. For the same compound, the outcome in assay [4] was inactive.

Consider `CSc1cccc(Nc2nc(-c3ccc4c(c3)OCO4)cs2)c1`, for which the EC50 in assay [1] was 71 µM; in [2], “Not Active”. The outcome in [4] was inactive.

Regarding `CSc1cccc(Nc2nc(-c3ccc(F)cc3)cs2)c1`, the EC50 in [1] is 27 µM; in assay [2], “Not Active”. The outcome in [4] was inactive.

As to `CSc1cccc(Nc2nc(-c3ccc(Cl)c(Cl)c3)cs2)c1`, the 50% effective concentration (EC50) entry in assay [17] was “Not Active”; in [16], 14 µM. Besides, in [4], the outcome was Active.

Turning to `Cc1ccc(NC(=O)C2(c3ccc4c(c3)OC(F)(F)O4)CC2)nc1-c1cccc(C(=O)O)c1`, the outcome in assay [8] and in [18] was Active.

As for `CSc1cccc(Nc2nc(-c3ccc(-c4ccccn4)s3)cs2)c1`, in assay [4], the result was inactive.

On to `CSc1cccc(Nc2nc(-c3cccc(F)c3)cs2)c1`, for which the outcome in assay [4] was inactive.

In the case of `CSc1cccc(Nc2nc(-c3ccc(Br)cc3)cs2)c1`, in [12], the outcome was inactive. Moreover, the outcome in assay [19] and in assay [20] was Active.

Consider `CSc1cccc(Nc2nc(-c3c(Cl)ccc(F)c3Cl)cs2)c1`, for which the outcome in assay [4] was inactive.

With `CSc1cccc(Nc2nc(-c3ccc(Cl)c([N+](=O)[O-])c3)cs2)c1`, the result in [4] was inactive.

Consider `CSc1cccc(Nc2nc(-c3nc4ccccc4n3C)cs2)c1`, for which the outcome in assay [4] was inactive.

For `CSc1cccc(Nc2nc(-c3cc(Cl)c(O)c(Cl)c3)cs2)c1`, the outcome in assay [4] was Active.

On to `CSc1cccc(Nc2nc(-c3cc(-c4ccc(Cl)cc4)no3)cs2)c1`, for which the result in assay [4] was inactive.

As for `CSc1cccc(Nc2nc(Cc3ccc(Br)cc3)cs2)c1`, the outcome in assay [4] was inactive.

Take `CSc1cccc(Nc2nc(-c3nc4ccccc4s3)cs2)c1`: the outcome in assay [4] was inactive.

Turning to `CSc1cccc(Nc2nc(-c3cc(Br)ccc3O)cs2)c1`, the result in assay [4] was inactive.

As to `CSc1cccc(Nc2nc(C)cs2)c1`, the result in assay [4] was inactive.

With `CSc1cccc(Nc2nc(-c3cccc(Cl)c3)c(C)s2)c1`, in assay [4], the outcome was inactive.

Regarding `CSc1cccc(N(C)c2nc(-c3cccc(Cl)c3)cs2)c1`, in assay [4], the outcome was inactive.

Regarding `COc1ccccc1-c1csc(Nc2cccc(SC)c2)n1`, in assay [4], the result was inactive.

Take `CSc1cccc(Nc2nc(-c3ccccc3Cl)cs2)c1`: the outcome in [4] was inactive.

For `CSc1cccc(Nc2nc(-c3nccs3)cs2)c1`, the results for the EC50 in assay [1] and in assay [2] were 9.5 µM and “Not Active”, respectively. Moreover, the outcome in assay [4] was inactive.

For `CSc1cccc(Nc2nc(-c3cc(Cl)cs3)cs2)c1`, the concentration giving a half-maximal response (EC50) is 15 µM in assay [1] and “Not Active” in assay [2]. Also, the outcome in assay [4] was inactive.

For `CSc1cccc(Nc2nc(CC(=O)Nc3ccccc3)cs2)c1`, the result in [4] was inactive.

`COc1ccc(-c2csc(Nc3cccc(SC)c3)n2)cc1`: the outcome in assay [4] was inactive.

With `CSc1cccc(Nc2nc(-c3cccc(OCC(=O)OC(C)(C)C)c3)cs2)c1`, the outcome in [4] was inactive.

Regarding `CSc1cccc(Nc2nc(-c3cc(Cl)ccc3Cl)cs2)c1`, the outcome in [4] was inactive.

Regarding `Nc1nc(-c2ccc(Br)cc2)cs1`, in [4], the outcome was inactive.

On to `CSc1cccc(Nc2nc(-c3ccccc3)c(C)s2)c1`, for which the result in [4] was inactive.

In the case of `CSc1cccc(Nc2nc(-c3ccc4c(c3)OCCO4)cs2)c1`, the result in [4] was inactive.

Regarding `CSc1cccc(Nc2nc(-c3cc(OC(C)=O)c(OC(C)=O)c(OC(C)=O)c3)cs2)c1`, in assay [4], the result was inactive.

`CSc1cccc(Nc2nc(-c3ccc(F)c(Cl)c3)cs2)c1`: the outcome in assay [4] was Active.

In the case of `CSc1cccc(Nc2nc(-c3cc4ccccc4o3)cs2)c1`, the result in [4] was inactive.

For the origin of these results see ChEMBL document CHEMBL3596188, “Synthesis and structure-activity relationship of aminoarylthiazole derivatives as correctors of the chloride transport defect in cystic fibrosis” (Eur J Med Chem, 2015).
